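Where inhibition never reached the appropriate level, the endpoint shown equals the highest concentration tested. Otherwise, values were interpolated linearly from a five-concentration, 48-hour dose response in 96-well plates. GI50 marks 50% less growth. TGI: concentration producing complete growth inhibition.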
Tests used:
Assay in all cases: growth of human tumour cells (NCI), 48 h
786-0 renal = tested on: 786-0 renal
A498 renal = tested on: A498 renal
A549 NSCLC = tested on: A549 NSCLC
ACHN renal = tested on: ACHN renal
BT-549 breast = tested on: BT-549 breast
CAKI-1 renal = tested on: CAKI-1 renal
CCRF-CEM leukemia = tested on: CCRF-CEM leukemia
COLO 205 colon = tested on: COLO 205 colon
DU-145 prostate = tested on: DU-145 prostate
EKVX NSCLC = tested on: EKVX NSCLC
HCC-2998 colon = tested on: HCC-2998 colon
HCT-116 colon = tested on: HCT-116 colon
HCT-15 colon = tested on: HCT-15 colon
HL-60(TB) leukemia = tested on: HL-60(TB) leukemia
HOP-62 NSCLC = tested on: HOP-62 NSCLC
HOP-92 NSCLC = tested on: HOP-92 NSCLC
HS 578T breast = tested on: HS 578T breast
HT29 colon = tested on: HT29 colon
IGROV1 ovarian = tested on: IGROV1 ovarian
K-562 leukemia = tested on: K-562 leukemia
KM12 colon = tested on: KM12 colon
LOX IMVI melanoma = tested on: LOX IMVI melanoma
M14 melanoma = tested on: M14 melanoma
MALME-3M melanoma = tested on: MALME-3M melanoma
MCF7 breast = tested on: MCF7 breast
MDA-MB-231 breast = tested on: MDA-MB-231 breast
MDA-MB-435 = tested on: MDA-MB-435
MOLT-4 leukemia = tested on: MOLT-4 leukemia
NCI-H226 lung = tested on: NCI-H226 lung
NCI-H23 lung = tested on: NCI-H23 lung
NCI-H460 lung = tested on: NCI-H460 lung
NCI-H522 lung = tested on: NCI-H522 lung
NCI/ADR-RES ovarian = tested on: NCI/ADR-RES ovarian
OVCAR-3 ovarian = tested on: OVCAR-3 ovarian
OVCAR-4 ovarian = tested on: OVCAR-4 ovarian
OVCAR-5 ovarian = tested on: OVCAR-5 ovarian
OVCAR-8 ovarian = tested on: OVCAR-8 ovarian
PC-3 prostate = tested on: PC-3 prostate
RPMI-8226 leukemia = tested on: RPMI-8226 leukemia
RXF 393 renal = tested on: RXF 393 renal
SF-268 CNS = tested on: SF-268 CNS
SF-295 CNS = tested on: SF-295 CNS
SF-539 CNS = tested on: SF-539 CNS
SK-MEL-2 melanoma = tested on: SK-MEL-2 melanoma
SK-MEL-28 melanoma = tested on: SK-MEL-28 melanoma
SK-MEL-5 melanoma = tested on: SK-MEL-5 melanoma
SK-OV-3 ovarian = tested on: SK-OV-3 ovarian
SN12C renal = tested on: SN12C renal
SNB-19 CNS = tested on: SNB-19 CNS
SNB-75 CNS = tested on: SNB-75 CNS
SR leukemia = tested on: SR leukemia
SW-620 colon = tested on: SW-620 colon
T-47D breast = tested on: T-47D breast
TK-10 renal = tested on: TK-10 renal
U251 CNS = tested on: U251 CNS
UACC-257 melanoma = tested on: UACC-257 melanoma
UACC-62 melanoma = tested on: UACC-62 melanoma
UO-31 renal = tested on: UO-31 renal

## CCOc1cccc(/C=N/NC(=O)Cc2ccc(Nc3ccnc(C(F)(F)F)c3)cc2)c1O
786-0 renal
  GI50: 2.85 µM
  TGI: 74.9 µM
A498 renal
  GI50: 4.62 µM
  TGI: 67 µM
A549 NSCLC
  GI50: 4.09 µM
  TGI: > 100 µM
ACHN renal
  GI50: 1.53 µM
  TGI: > 100 µM
BT-549 breast
  GI50: 2.34 µM
  TGI: 46.3 µM
CAKI-1 renal
  GI50: 2.54 µM
  TGI: 52.2 µM
CCRF-CEM leukemia
  GI50: 0.328 µM
  TGI: 2.76 µM
COLO 205 colon
  GI50: 3.9 µM
  TGI: > 100 µM
DU-145 prostate
  GI50: 2.06 µM
  TGI: > 100 µM
EKVX NSCLC
  GI50: 3.87 µM
  TGI: > 100 µM
HCC-2998 colon
  GI50: 6.78 µM
  TGI: 93.4 µM
HCT-116 colon
  GI50: 1.2 µM
  TGI: 19.3 µM
HCT-15 colon
  GI50: 0.909 µM
  TGI: > 100 µM
HL-60(TB) leukemia
  GI50: 1.03 µM
  TGI: 4.22 µM
HOP-62 NSCLC
  GI50: 2.28 µM
  TGI: 30.8 µM
HOP-92 NSCLC
  GI50: 1.9 µM
  TGI: 9.93 µM
HS 578T breast
  GI50: 5.75 µM
  TGI: > 100 µM
HT29 colon
  GI50: 8 µM
  TGI: 78.6 µM
IGROV1 ovarian
  GI50: 2.27 µM
  TGI: > 100 µM
K-562 leukemia
  GI50: 2.25 µM
  TGI: 15 µM
KM12 colon
  GI50: 3.73 µM
  TGI: 84.3 µM
LOX IMVI melanoma
  GI50: 1.49 µM
  TGI: > 100 µM
M14 melanoma
  GI50: 1.79 µM
  TGI: 15.8 µM
MALME-3M melanoma
  GI50: 2.13 µM
  TGI: 18.7 µM
MCF7 breast
  GI50: 2.39 µM
  TGI: > 100 µM
MDA-MB-231 breast
  GI50: 3.15 µM
  TGI: > 100 µM
MDA-MB-435
  GI50: 3.77 µM
  TGI: > 100 µM
MOLT-4 leukemia
  GI50: 0.499 µM
  TGI: 4.42 µM
NCI-H226 lung
  GI50: 3.21 µM
  TGI: 34.9 µM
NCI-H23 lung
  GI50: 5.26 µM
  TGI: > 100 µM
NCI-H460 lung
  GI50: 1.71 µM
  TGI: 13.5 µM
NCI-H522 lung
  GI50: 4.76 µM
  TGI: 33.2 µM
NCI/ADR-RES ovarian
  GI50: 4.23 µM
  TGI: > 100 µM
OVCAR-3 ovarian
  GI50: 0.394 µM
  TGI: 30.4 µM
OVCAR-4 ovarian
  GI50: 0.824 µM
  TGI: > 100 µM
OVCAR-5 ovarian
  GI50: 32.6 µM
  TGI: > 100 µM
OVCAR-8 ovarian
  GI50: 3.27 µM
  TGI: > 100 µM
PC-3 prostate
  GI50: 1.88 µM
  TGI: 21.6 µM
RPMI-8226 leukemia
  GI50: 0.519 µM
  TGI: 17.4 µM
RXF 393 renal
  GI50: 3.2 µM
  TGI: 40 µM
SF-268 CNS
  GI50: 1.27 µM
  TGI: 32.4 µM
SF-295 CNS
  GI50: 3.81 µM
  TGI: 43.2 µM
SF-539 CNS
  GI50: 2.03 µM
  TGI: 14.5 µM
SK-MEL-2 melanoma
  GI50: 11.4 µM
  TGI: 45 µM
SK-MEL-28 melanoma
  GI50: 2.97 µM
  TGI: > 100 µM
SK-MEL-5 melanoma
  GI50: 1.67 µM
  TGI: 5.99 µM
SK-OV-3 ovarian
  GI50: 3.3 µM
  TGI: > 100 µM
SN12C renal
  GI50: 4.58 µM
  TGI: > 100 µM
SNB-19 CNS
  GI50: 2.54 µM
  TGI: > 100 µM
SNB-75 CNS
  GI50: 12.4 µM
  TGI: 55 µM
SR leukemia
  GI50: 0.316 µM
  TGI: 10.8 µM
SW-620 colon
  GI50: 3.06 µM
  TGI: 18 µM
T-47D breast
  GI50: 2.43 µM
  TGI: 26 µM
TK-10 renal
  GI50: 4.01 µM
  TGI: 44.5 µM
U251 CNS
  GI50: 1.58 µM
  TGI: > 100 µM
UACC-257 melanoma
  GI50: 6.84 µM
  TGI: > 100 µM
UACC-62 melanoma
  GI50: 1.64 µM
  TGI: 14.7 µM
UO-31 renal
  GI50: 0.986 µM
  TGI: 20.7 µM

## COc1cccc(C2CC(=O)Nc3cc4c(cc32)CCC4)c1OC (stereo not given)
786-0 renal
  GI50: 4.84 µM
  TGI: 27.9 µM
A498 renal
  GI50: 2.39 µM
  TGI: 13.2 µM
A549 NSCLC
  GI50: 0.859 µM
  TGI: > 33.8 µM
ACHN renal
  GI50: 6.72 µM
  TGI: > 84 µM
BT-549 breast
  GI50: 3.57 µM
  TGI: 16.7 µM
CAKI-1 renal
  GI50: 3.36 µM
  TGI: 56.2 µM
CCRF-CEM leukemia
  GI50: 2.28 µM
  TGI: 7.08 µM
COLO 205 colon
  GI50: 3.13 µM
  TGI: 8.48 µM
DU-145 prostate
  GI50: 3.48 µM
  TGI: 16.1 µM
HCC-2998 colon
  GI50: 7.56 µM
  TGI: 28.1 µM
HCT-116 colon
  GI50: 3.61 µM
  TGI: 16 µM
HCT-15 colon
  GI50: 3.63 µM
  TGI: 25.8 µM
HL-60(TB) leukemia
  GI50: 2.73 µM
  TGI: 7.88 µM
HOP-62 NSCLC
  GI50: 5.97 µM
  TGI: > 46.8 µM
HOP-92 NSCLC
  GI50: 0.758 µM
  TGI: 7.83 µM
HS 578T breast
  GI50: 3.04 µM
  TGI: 34.8 µM
HT29 colon
  GI50: 3.26 µM
  TGI: 12.6 µM
IGROV1 ovarian
  GI50: 6.49 µM
  TGI: 59.3 µM
K-562 leukemia
  GI50: 3.07 µM
  TGI: 37.5 µM
KM12 colon
  GI50: 4.21 µM
  TGI: 18.6 µM
LOX IMVI melanoma
  GI50: 4.26 µM
  TGI: 16.8 µM
M14 melanoma
  GI50: 2.59 µM
  TGI: 8.94 µM
MALME-3M melanoma
  GI50: 5.98 µM
  TGI: 36 µM
MCF7 breast
  GI50: 3.22 µM
  TGI: 18.4 µM
MDA-MB-231 breast
  GI50: 6.17 µM
  TGI: 39.5 µM
MDA-MB-435
  GI50: 1.44 µM
  TGI: 4.1 µM
MOLT-4 leukemia
  GI50: 3.16 µM
  TGI: 10.2 µM
NCI-H226 lung
  GI50: 9.7 µM
  TGI: 44.2 µM
NCI-H23 lung
  GI50: 3.4 µM
  TGI: 26.1 µM
NCI-H460 lung
  GI50: 3.16 µM
  TGI: 12.3 µM
NCI-H522 lung
  GI50: 3.67 µM
  TGI: 18.4 µM
NCI/ADR-RES ovarian
  GI50: 2.43 µM
  TGI: 7.14 µM
OVCAR-3 ovarian
  GI50: 2.37 µM
  TGI: 5.9 µM
OVCAR-4 ovarian
  GI50: 12.3 µM
  TGI: 98.2 µM
OVCAR-5 ovarian
  GI50: 7.67 µM
  TGI: > 80.3 µM
OVCAR-8 ovarian
  GI50: 3.67 µM
  TGI: 31.9 µM
PC-3 prostate
  GI50: 3.41 µM
  TGI: 47.3 µM
RPMI-8226 leukemia
  GI50: 2.63 µM
  TGI: 14.6 µM
RXF 393 renal
  GI50: 3.34 µM
  TGI: 13.7 µM
SF-268 CNS
  GI50: 5.34 µM
  TGI: 27.5 µM
SF-295 CNS
  GI50: 2.83 µM
  TGI: 12.4 µM
SF-539 CNS
  GI50: 3.03 µM
  TGI: 10.4 µM
SK-MEL-2 melanoma
  GI50: 4.12 µM
  TGI: 17.3 µM
SK-MEL-28 melanoma
  GI50: 5.33 µM
  TGI: 28.3 µM
SK-MEL-5 melanoma
  GI50: 2.9 µM
  TGI: 11.1 µM
SK-OV-3 ovarian
  GI50: 3.73 µM
  TGI: 20 µM
SN12C renal
  GI50: 5.4 µM
  TGI: 34.8 µM
SNB-19 CNS
  GI50: 8.66 µM
  TGI: > 100 µM
SNB-75 CNS
  GI50: 2.31 µM
  TGI: 11.9 µM
SR leukemia
  GI50: 2.87 µM
  TGI: 10.8 µM
SW-620 colon
  GI50: 3.11 µM
  TGI: > 46.2 µM
T-47D breast
  GI50: 5.52 µM
  TGI: 52.3 µM
TK-10 renal
  GI50: 12.4 µM
  TGI: > 100 µM
U251 CNS
  GI50: 4.71 µM
  TGI: 19.3 µM
UACC-257 melanoma
  GI50: 1.11 µM
  TGI: 11.2 µM
UACC-62 melanoma
  GI50: 2.9 µM
  TGI: 14.4 µM
UO-31 renal
  GI50: 7.18 µM
  TGI: 38.7 µM
